These results are taken from patent publication US20200354562A1, “FILMS AND COMPOSITES AND METHODS OF PRODUCTION AND USE” (Texas Tech University System, priority 2018, published 2020).

The conditions of series [1]: 24° C.; cited from earlier work.
The nature of series [2]: Texture analysis of PCL-PVAc-PEG/Vitamin E composites (hardness, adhesiveness, cohesiveness). Type of series: physicochemical. As to conditions: probe compression 2 mm/s to 4 mm depth, 20±1° C. How it is done: Texture Analysis. Texture analysis is a technique that has been widely utilized for the mechanical characterization of food and pharmaceutical products. The mechanical characteristics of the PCL-PVAc-PEG/Vitamin E composites were determined by using a TA-XT plus texture analyzer (Texture Technologies Corp and Stable Micro Systems, Ltd, Scarsdale, N.Y., USA) equipped with a 50 kg load cell and fitted with a 35 mm flat-faced stainless-steel cylindrical probe. Briefly, 10 g sample of each composite was placed in a 25 mL jacketed reaction beaker. Before analysis, air bubbles were removed from the samples by maintaining the reaction beaker at 80° C. for approximately 30 minutes. Samples were then allowed to equilibrate to room temperature for 24 h. After equilibration, samples were tested for their texture properties by compressing the probe into the surface of each sample at a rate of 2 mm/s to a depth of 4 mm, after which the probe was retracted at a rate of 2 mm/s. Composite Hardness, adhesiveness, and cohesiveness were then estimated from the generated force-time plots. At least three replicate analyses were carried out for each composite using a freshly prepared sample. Data collection and calculation were determined by the Texture Exponent 6.1.7.0 software package.
Texture Analysis. Texture profile analysis (TPA) of the PCL-PVAc-PEG/Vitamin E composites was carried out to study their compressional flow properties. It provided valuable information about the impact of PCL-PVAc-PEG load on the hardness, adhesiveness, and cohesiveness of the composites (FIG. 9). These characteristics quantify sample deformation under compression. Hardness describes the stress/work required to remove the sample from the container and to subsequently apply it to the site of application. It is defined as the force required to acquire a given deformation which is the same as the maximum peak force during compression. Hardness should be low in order to allow the material to be easily removed from the container. […]

Series [3] is described as follows: Flow rheometry test of PCL-PVAc-PEG/Vitamin E composites. To be noted: flow mode, 20±1° C., shear stress 0.60 to 59.68 Pa. Type of series: physicochemical. The procedure:
Rheological Characterization. […] The viscoelastic properties of the composites were evaluated by measuring their shear rate under an applied shear stress. The viscous response, or the loss modulus, is the loss of the rigid structure of the system as a result of the applied stress over strain (G″). The recovery of the polymeric dispersions when lifting the applied stress is known as the elastic (G′) or storage modulus. Tangent of the phase angle (tan δ) is the ratio of the viscous property of the dispersion (G″) to its elastic property (G′). Tan δ is a measure of the relative contribution of the viscous component to the solid characteristics of the material. Materials behave increasingly like a liquid as the tan δ value increases above 1, whereas they behave increasingly like a gel as the tan δ value decreases below 1 [13].
The characterization of the rheological properties of vitamin E and PCL-PVAc-PEG/Vitamin E composites was carried out with an Advanced AR 2000 controlled stress/controlled rate rheometer (TA Instruments, New Castle, Del., USA) with a 2o, 40 mm cone-plate geometry and a 61 μm gap between the plates. Approximately 0.6 mL of each sample was carefully placed on the lower plate. […]
Flow Rheometry Test. The flow behavior and complex viscosity (η) of the PCL-PVAc-PEG/Vitamin E composites were measured in flow mode at 20±1° C. under an applied shear stress from 0.60 to 59.68 Pa. […]

Consider `Cc1c(C)c2c(c(C)c1O)CCC(C)(CCCC(C)CCCC(C)CCCC(C)C)O2` (racemic) [pure vitamin E, DL-α-Tocopherol], for which the reported viscosity in series [1] is given as 2480 centipoise. In addition, in series [2], the Adhesiveness turned out to be 0.01 kg·s, the Cohesiveness was 0.02 kg·s and the Hardness turned out to be 0.021 kg. Besides, the Viscosity in series [3] is given as 5.9 Pa·s.
